How the values were obtained:
[1] = test system: RNA (Type VI from torula yeast); experiment: In vitro solution assay (primary screening): fluorescent emission fold change upon binding to RNA; settings: dye 10 μM, RNA 500 μg/mL in TE buffer
Method: (§1) The fluorescence spectra data in the primary screening and selected dyes titration assay study was obtained by Gemini XS plate reader. RNA solution was prepared right before the assay experiments to avoid possible degradation and contamination. In the primary screening, 1 mg/mL RNA (type VI from torula yeast) buffer solution was used. Point scans were carried out first using five Ex/Em point sets ([…], 400/500, 450/550, 500/600, 550/650 nm). Spectra scans were then carried out for the selected dyes. Excitation wavelengths were set at 350 nm, 400 nm, 450 nm, 500 nm, and 550 nm and the emission wavelengths were scanned. RNA (16S- and 23S-ribosomal from E. coli) and DNA (salmon testes) titration experiments and quantum yield/extinction coefficient determination for the three best dyes were carried out by the plate reader as well. Excitation λmax obtained from F-2500 Hitachi Fluorophotometer was used. Absorbance wavelength was determined by SpectraMax Plus^384 absorbance plate reader. […] was chosen as standard and 480 nm was used as excitation wavelength in the scanning for quantum yield determination.
The screening strategy used in this study is illustrated in FIG. 2. Both in vitro RNA assays and live cell imaging methods were utilized in the primary screening of the dye library. Selective binding of the dye to RNA in solution was the primary criterion for selecting lead compounds for subsequent bioimaging studies, Herein, the library dyes' fluorescent emission intensity fold change upon binding to RNA was measured in solution. Dyes showing five-fold or higher emission changes in the presence of RNA were selected (Table 3). Note the dyes listed are identified by the building blocks I and II from Table 2. For example, A4 is the product made by reacting compound A from the list of Building block I and compound 4 from the list of Building block II.

[2] = Fluorescence spectrum in TE buffer of dyes selected from live cell imaging; type: physicochemical; settings: dye 10 μM in TE buffer
Method: as §1

Structure (SMILES)	Em(nm) [1] [nm]	Ex(nm) [1] [nm]	Fold (fluorescent emission fold changes to RNA) [1]	SPECTRUM EM [2] [nm]	SPECTRUM EX [2] [nm]
COc1cc(OC)c(OC)cc1C=Cc1cccc(C)[n+]1C [Dye C8]	570	450	9		
COc1cc(/C=C/c2cc[n+](C)cc2)c(OCc2ccccc2)cc1OC [Dye A156]	580	450	42		
COc1ccc2c(ccc(/C=C/c3cc(I)ccc3O)[n+]2C)c1 [Dye F120]				550	450
C[n+]1c(/C=C/c2ccc(Br)s2)ccc2ccccc21 [Dye E77]				470	350
COc1ccc2c(ccc(C=Cc3ccc(C)c4ccccc34)[n+]2C)c1 [Dye F141]				560	450
COc1ccc2c(ccc(/C=C/c3c[nH]c4ccccc34)[n+]2C)c1 [Dye F4]	560	450	62		
Cc1cccc(/C=C/c2ccc(N(C)CCC#N)cc2)[n+]1C [Dye C9]	610	500	9		
C[n+]1c(C=Cc2ccc3c(c2)OCO3)ccc2ccccc21 [Dye E43]	560	450	10		
COc1ccc2c(ccc(/C=C/c3ccoc3)[n+]2C)c1 [Dye F48]				480	400
C[n+]1ccc(C=Cc2c(O)ccc3ccccc23)cc1 [Dye A42]	560	450	10		
COc1ccc2c(ccc(/C=C/c3cccc(C(F)(F)F)c3)[n+]2C)c1 [Dye F82]				490	400
Cc1cc(C=Cc2cc[n+](C)cc2)c(C)n1-c1cccc(C(F)(F)F)c1 [Dye A121]	540	450	28		
CCn1c2ccccc2c2cc(C=Cc3cc[n+](C)c4ccccc34)ccc21 [Dye D107]	620	500	13		
COc1ccc2c(ccc(C=Cc3ccccc3N(c3ccccc3)c3ccccc3)[n+]2C)c1 [Dye F138]				460	350
COc1ccc2c(ccc(/C=C/c3cc4c5c(c3O)CCCN5CCC4)[n+]2C)c1 [Dye F115]				650	500
COc1ccc2c(ccc(/C=C/c3ccc(OC)c(O)c3Cl)[n+]2C)c1 [Dye F155]				540	450
CCN(CC)c1ccc(C=Cc2ccc3cc(OC)ccc3[n+]2C)cc1 [Dye F92]	640	500	20		
COC(=O)c1cc(OC)cc(OC)c1C=Cc1ccc2cc(OC)ccc2[n+]1C [Dye F145]				540	400
COc1ccc(Oc2cccc(/C=C/c3ccc4ccccc4[n+]3C)c2)cc1 [Dye E83]				450	350

Structure (SMILES)	Em(nm) [1] [nm]	Ex(nm) [1] [nm]	Fold (fluorescent emission fold changes to RNA) [1]	SPECTRUM EM [2] [nm]	SPECTRUM EX [2] [nm]
C[n+]1c(C=Cc2cc(C(C)(C)C)ccc2O)ccc2ccccc21 [Dye E73]				550	450
CCN(CC)c1ccc(C=Cc2cccc[n+]2C)cc1 [Dye B92]	600	500	28		
CN(C)c1ccc(C=Cc2cc[n+](C)cc2)c2ccccc12 [Dye A24]	660	500	103		
COc1ccc(/C=C/c2ccc3ccccc3[n+]2C)cc1 [Dye E63]				480	400
COc1ccc2c(ccc(/C=C/c3ccccc3OCC(=O)O)[n+]2C)c1 [Dye F116]				520	400
COc1ccc2c(ccc(/C=C/c3cccc(Br)n3)[n+]2C)c1 [Dye F128]				510	400
COc1ccc2c(ccc(/C=C/c3c(C)cc(C)cc3C)[n+]2C)c1 [Dye F85]				470	400
C[n+]1c(C=Cc2cc(Br)c(Cl)c(Br)c2)ccc2ccccc21 [Dye E111]	620	500	17		
COc1ccc(-c2ccc(/C=C/c3cccc[n+]3C)o2)cc1Cl [Dye B139]				570	450
CCN(CC)c1ccc(/C=C/c2cccc[n+]2C)c(C#N)c1 [Dye B132]	590	500	28		
Cc1cccc(C=Cc2cc3ccccc3n2C)[n+]1C [Dye C108]	580	450	8		
CCN(CC)c1ccc(C=Cc2ccc3cc(OC)ccc3[n+]2C)c(C#N)c1 [Dye F132]	640	500	14		
Cn1c(/C=C/c2cc[n+](C)cc2)cc2ccccc21 [Dye A108]	590	450	8		
Cc1cccc(/C=C/c2ccc(N(C)C)cc2)[n+]1C [Dye C22]	630	500	6		
CCCCCC(/C=C/c1ccc2cc(OC)ccc2[n+]1C)=C\c1ccccc1 [Dye F101]				470	350
CCN(CC)c1ccc(C=Cc2cc[n+](C)cc2)c(C#N)c1 [Dye A132]	610	500	17		
COc1ccc2c(ccc(/C=C/c3cc4ccccc4n3C)[n+]2C)c1 [Dye F108]	610	500	27		
COc1ccc2c(ccc(/C=C/c3ccc(Br)s3)[n+]2C)c1 [Dye F77]				440	350
COc1ccc2c(ccc(C=Cc3cccc(Br)c3)[n+]2C)c1 [Dye F40]				490	400

Structure (SMILES)	Em(nm) [1] [nm]	Ex(nm) [1] [nm]	Fold (fluorescent emission fold changes to RNA) [1]	SPECTRUM EM [2] [nm]	SPECTRUM EX [2] [nm]
CN(CCC#N)c1ccc(/C=C/c2cc[n+](C)cc2)cc1 [Dye A9]	600	500	21		
CCN(CC)c1ccc(/C=C/c2cccc(C)[n+]2C)cc1 [Dye C92]	630	500	15		
COc1ccc(Oc2cccc(C=Cc3ccc4cc(OC)ccc4[n+]3C)c2)cc1 [Dye F83]				460	350
COc1ccc2c(ccc(C=Cc3cc(C(C)(C)C)ccc3O)[n+]2C)c1 [Dye F73]				490	400
COc1ccc2c(ccc(C=Cc3ccc(N(C)CCC#N)cc3)[n+]2C)c1 [Dye F9]	620	500	86		
COc1ccc2c(ccc(C=Cc3ccc4c5c(cccc35)CC4)[n+]2C)c1 [Dye F118]				590	450
Cn1c(C=Cc2ccc3ccccc3[n+]2C)cc2ccccc21 [Dye E108]	620	500	21		
COc1cc(/C=C/c2cccc[n+]2C)c(OCc2ccccc2)cc1OC [Dye B156]	560	450	54		
COc1ccc2c(ccc(C=Cc3ccc(-c4cccs4)s3)[n+]2C)c1 [Dye F119]				610	500
C[n+]1ccc(C=Cc2cccc(F)c2F)c2ccccc21 [Dye D84]				460	350
COc1ccc2c(ccc(C=Cc3cc(OC)c(OC)cc3OC)[n+]2C)c1.[I-] [Dye F8]	610	500	52		
COc1cc(OC)c(C=Cc2cc[n+](C)cc2)c(OC)c1 [Dye A144]	530	450	26		
CN(C)c1ccc(C=Cc2cc[n+](C)cc2)cc1 [Dye A22]	610	500	28		
C[n+]1ccc(/C=C/c2c[nH]c3ccccc23)cc1 [Dye A4]	540	450	11		
COc1ccc2c(ccc(C=Cc3ccc(N(C)CCO)cc3)[n+]2C)c1 [Dye F10]	630	500	38		
COc1cc(OC)c(OC)cc1/C=C/c1cc[n+](C)cc1 [Dye A8]	580	450	37		
Cn1c(/C=C/c2cc[n+](C)c3ccccc23)cc2ccccc21 [Dye D108]	630	500	21		
CN(CCO)c1ccc(/C=C/c2cc[n+](C)cc2)cc1 [Dye A10]	610	500	23		

Reference: patent US7790896B2, “RNA-selective probes for live cell imaging of nuclear structure and function” (New York University, priority 2006, dated 2010)
